Assay results published in ChEMBL document CHEMBL1201862, “PubChem BioAssay data set” (2004).
Calls of active or inactive are those of the source.

Test system: not listed separately
Assay: NIH3T3 cell viability loss – ATP luminescence, mouse fibroblasts, counter-screen, dose response (AID 2010);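 note: cells exposed to compound for about 90 hours before reading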
Format: functional, cell-based
Conditions: not given

| Structure (SMILES) | EC50 |
| --- | --- |
| C/C(=N\OC(=O)NC1CCCCC1)c1sc(-c2ccccc2)nc1C | > 60 µM (not active) |

Target: Cytochrome P450 2D6 (Homo sapiens, UniProt P10635);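 note: CYP2D6 member of a cytochrome P450 panel assay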
Sequence (P10635 whole entry): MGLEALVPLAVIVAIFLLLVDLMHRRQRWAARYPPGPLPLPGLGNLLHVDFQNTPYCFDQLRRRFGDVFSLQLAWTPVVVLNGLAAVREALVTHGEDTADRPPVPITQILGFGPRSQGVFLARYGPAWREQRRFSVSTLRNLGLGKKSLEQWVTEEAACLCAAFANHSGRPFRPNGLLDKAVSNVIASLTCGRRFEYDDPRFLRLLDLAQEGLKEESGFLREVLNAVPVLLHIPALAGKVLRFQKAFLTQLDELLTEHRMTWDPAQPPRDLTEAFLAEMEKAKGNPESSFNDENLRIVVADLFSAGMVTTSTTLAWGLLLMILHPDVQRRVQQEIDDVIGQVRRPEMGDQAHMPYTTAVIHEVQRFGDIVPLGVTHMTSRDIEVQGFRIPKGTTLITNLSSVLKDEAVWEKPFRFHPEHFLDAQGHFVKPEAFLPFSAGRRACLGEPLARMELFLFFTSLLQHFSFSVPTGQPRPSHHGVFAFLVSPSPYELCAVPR
Assay: not given
Conditions: not given

| Structure (SMILES) | AC50 |
| --- | --- |
| C/C(=N\OC(=O)NC1CCCCC1)c1sc(-c2ccccc2)nc1C | 28.2 µM (inconclusive) |

Test system: not listed separately
Assay: Luminescence Cell-Based Dose Retest to Confirm Inhibitors of Cancer Stem Cells. [Related pubchem assays (depositor defined):AID2717, AID2721]
Format: functional
Conditions: Homo sapiens

| Structure (SMILES) | AC50 |
| --- | --- |
| O=C(COc1ccccc1-c1ccccc1)N/N=C/c1ccc2ccccc2c1 | 0.258 µM (active) |

Test system: BJ
Assay: BJ-TERT fibroblast viability loss – cell-based, RAS-independent, luminescence, dose response (AID 1933)
Format: functional
Conditions: Homo sapiens

| Structure (SMILES) | EC50 |
| --- | --- |
| Cc1ccc(C(=O)c2cc([N+](=O)[O-])ccc2N2CC(C)OC(C)C2)cc1 (centres undefined) | 13.8 µM (active) |
| N/C(=C\C(=O)c1cc(Cl)ccc1O)C(Cl)(Cl)Cl | 3.92 µM (active) |
| O=C(COc1ccccc1-c1ccccc1)N/N=C/c1ccc2ccccc2c1 | 0.364 µM (active) |
| COc1ccc(S(=O)(=O)Cc2ccc(C(=O)N3CCN(c4cccc(C)c4C)CC3)o2)cc1 | > 150 µM (not active) |

Target: Paired box protein Pax-8 (Homo sapiens, UniProt Q06710)
Sequence (Q06710 whole entry): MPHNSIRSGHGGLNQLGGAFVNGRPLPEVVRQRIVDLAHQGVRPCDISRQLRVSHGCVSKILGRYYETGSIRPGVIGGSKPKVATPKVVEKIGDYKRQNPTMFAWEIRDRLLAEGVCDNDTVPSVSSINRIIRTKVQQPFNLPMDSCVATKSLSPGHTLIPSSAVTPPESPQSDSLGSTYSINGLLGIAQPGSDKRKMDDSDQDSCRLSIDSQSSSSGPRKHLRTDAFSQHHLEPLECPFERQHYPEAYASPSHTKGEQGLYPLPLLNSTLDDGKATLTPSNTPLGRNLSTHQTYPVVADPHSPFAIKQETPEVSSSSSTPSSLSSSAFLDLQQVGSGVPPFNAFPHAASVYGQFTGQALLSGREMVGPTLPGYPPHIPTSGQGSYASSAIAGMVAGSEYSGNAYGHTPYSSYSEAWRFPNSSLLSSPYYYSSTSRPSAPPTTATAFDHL
Assay: PAX8 transcriptional activity inhibition in RMG-I – RMG-I cells, luciferase, cherry-pick, dose response (AID 687027);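 note: luciferase reporter driven by Pax8 target thyroperoxidase promoter measured by SteadyGlo luminescence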
Format: functional, cell-based
Conditions: not given

| Structure (SMILES) | AC50 |
| --- | --- |
| O=C(COc1ccccc1-c1ccccc1)N/N=C/c1ccc2ccccc2c1 | 2.1 µM (active) |

Test system: BJ
Assay: cells
Format: functional, cell-based
Conditions: Homo sapiens

| Structure (SMILES) | EC50 |
| --- | --- |
| Cc1ccc(C(=O)c2cc([N+](=O)[O-])ccc2N2CC(C)OC(C)C2)cc1 (centres undefined) | 31.6 µM (active) |
| N/C(=C\C(=O)c1cc(Cl)ccc1O)C(Cl)(Cl)Cl | 5.09 µM (active) |
| O=C(COc1ccccc1-c1ccccc1)N/N=C/c1ccc2ccccc2c1 | 0.568 µM (active) |
| COc1ccc(S(=O)(=O)Cc2ccc(C(=O)N3CCN(c4cccc(C)c4C)CC3)o2)cc1 | > 150 µM (not active) |

Test system: Streptococcus sp. 'group A'
Assay: Streptococcus pyogenes SK(-)GAS viability under kanamycin – luminescence, BacTiterGlo, confirmation, counter-screen for streptokinase expression inhibitor project, dose response (AID 1900)
Format: functional, organism-based
Conditions: not given

| Structure (SMILES) | EC50 |
| --- | --- |
| O=C(COc1ccccc1-c1ccccc1)N/N=C/c1ccc2ccccc2c1 | 4.87 µM (active) |

Test system: not listed separately
Assay: Luminescence Cell-Based Dose Confirmation HTS to Identify Activators of 5'UTR Stem-Loop Driven Alpha-Synuclein mRNA Translation in H4 Neuroglioblastoma Cells. [Related pubchem assays: 1829 (Project Summary), 1814 (Primary HTS)]
Format: functional
Conditions: not given

| Structure (SMILES) | EC50 |
| --- | --- |
| O=C(NCc1csc(-c2ccccc2)n1)c1cc(F)cc2c1OCOC2 | 14.9 µM (active) |
| Cc1ccc(NCC(=O)N=Nc2c(O)[nH]c3ccc([N+](=O)[O-])cc23)cc1 | 24.6 µM (active) |
| Cc1sc2c(c1C)CN(CCN1CCOCC1)CN2C(=O)c1ccccc1 | 19.9 µM (active) |
| CCOC(=O)C1(Cc2cccc(OC)c2)CCCN(C(=O)CCc2cccnc2)C1 (centres undefined) | 15.2 µM (active) |
| Cc1cccc(C(=O)NNC(=O)c2ccc(Cl)cc2)c1O | 23.3 µM (active) |
| O=C(CC1Sc2ccccc2NC1=O)c1ccc(Br)cc1 (centres undefined) | 5.6 µM (active) |
| Cc1cc(NC(=O)c2cccc(Br)c2)[nH]n1 | 2.47 µM (active) |
| C/C(=N\OC(=O)NC1CCCCC1)c1sc(-c2ccccc2)nc1C | 22 µM (active) |
| CC1Oc2ccccc2C=C1/C=C1/SC(N2CCOCC2)=NC1=O (centres undefined) | 7.43 µM (active) |
| c1ccc(CCc2nc(-c3ccccc3)no2)cc1 | 56.8 µM (active) |
| Cc1ccc2c(c1)C(N1CCCC1=O)CC(c1ccco1)N2 (centres undefined) | 14.6 µM (active) |

Target: Cytochrome P450 2C19 (Homo sapiens, UniProt P33261)
Sequence (P33261 whole entry): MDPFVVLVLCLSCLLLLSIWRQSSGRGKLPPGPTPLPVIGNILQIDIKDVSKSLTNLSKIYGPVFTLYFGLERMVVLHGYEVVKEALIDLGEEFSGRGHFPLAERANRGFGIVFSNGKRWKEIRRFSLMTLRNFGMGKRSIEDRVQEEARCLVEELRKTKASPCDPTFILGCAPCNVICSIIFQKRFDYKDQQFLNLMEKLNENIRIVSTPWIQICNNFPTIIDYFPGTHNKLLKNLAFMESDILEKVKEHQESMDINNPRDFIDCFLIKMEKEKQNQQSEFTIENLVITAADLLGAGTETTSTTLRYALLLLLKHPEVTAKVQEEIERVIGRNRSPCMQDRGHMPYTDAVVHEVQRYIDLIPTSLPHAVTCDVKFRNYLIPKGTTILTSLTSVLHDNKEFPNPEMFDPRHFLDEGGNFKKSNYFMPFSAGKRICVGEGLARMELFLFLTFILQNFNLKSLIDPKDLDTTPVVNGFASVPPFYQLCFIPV
Assay: Cytochrome panel assay with activity outcomes. Panel member name: p450-cyp2c19 Compounds with AC50 equal or less than 10 uM are considered active
Format: functional
Conditions: read-out: AC50

| Structure (SMILES) | AC50 |
| --- | --- |
| c1ccc(CCc2nc(-c3ccccc3)no2)cc1 | 0.501 µM (inconclusive) |

Test system: H4
Assay: Luminescence Cell-Based Dose Response HTS to Identify Activators of 5'UTR Stem-Loop Driven Prion Protein mRNA Translation in H4 Neuroglioblastoma Cells. [Related pubchem assays: 1829 (Project Summary), 1814 (Primary HTS)]
Format: functional
Conditions: Homo sapiens

| Structure (SMILES) | EC50 |
| --- | --- |
| O=C(NCc1csc(-c2ccccc2)n1)c1cc(F)cc2c1OCOC2 | 15.5 µM (active) |
| Cc1ccc(NCC(=O)N=Nc2c(O)[nH]c3ccc([N+](=O)[O-])cc23)cc1 | 0.303 µM (active) |
| Cc1sc2c(c1C)CN(CCN1CCOCC1)CN2C(=O)c1ccccc1 | > 120 µM (not active) |
| CCOC(=O)C1(Cc2cccc(OC)c2)CCCN(C(=O)CCc2cccnc2)C1 (centres undefined) | > 120 µM (not active) |
| Cc1cccc(C(=O)NNC(=O)c2ccc(Cl)cc2)c1O | 98.9 µM (active) |
| O=C(CC1Sc2ccccc2NC1=O)c1ccc(Br)cc1 (centres undefined) | 36.6 µM (active) |
| C/C(=N\OC(=O)NC1CCCCC1)c1sc(-c2ccccc2)nc1C | > 120 µM (inconclusive) |
| CC1Oc2ccccc2C=C1/C=C1/SC(N2CCOCC2)=NC1=O (centres undefined) | 10.9 µM (active) |
| c1ccc(CCc2nc(-c3ccccc3)no2)cc1 | 6.54 µM (active) |
| Cc1ccc2c(c1)C(N1CCCC1=O)CC(c1ccco1)N2 (centres undefined) | > 120 µM (not active) |

Test system: INS1
Assay: INS-1E survival protection against cytokine death – cell-based, luminescence, retest, dose response (AID 449756);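 note: cell death triggered by IL-1 beta plus TNF-alpha plus IFN-gamma mixture; protective hits raise ATP signal compared with cytokine alone wells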
Format: functional
Conditions: Rattus norvegicus

| Structure (SMILES) | AC50 |
| --- | --- |
| O=C(COc1ccccc1-c1ccccc1)N/N=C/c1ccc2ccccc2c1 | 9.14 µM (active) |

Test system: not listed separately
Assay: Trypanosoma cruzi growth suppression in host cells – NIH3T3 host cells, beta-gal luminescence, confirmation (AID 2044);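 note: intracellular parasites grown in NIH/3T3 mouse fibroblasts as host cells; luminescent beta-galactosidase reporter signal from transgenic T. cruzi replicating inside host cells; inhibitors lower the luminescence signal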
Format: functional, cell-based
Conditions: not given

| Structure (SMILES) | EC50 |
| --- | --- |
| C/C(=N\OC(=O)NC1CCCCC1)c1sc(-c2ccccc2)nc1C | 2.05 µM (active) |

Test system: Streptococcus
Assay: GAS UMAA2166 growth inhibition – luminescence, BacTiterGlo, counter-screen for streptokinase expression inhibitor project, dose response (AID 1915);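 note: potency for reduction of bacterial viability or growth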
Format: functional, organism-based
Conditions: not given

| Structure (SMILES) | EC50 |
| --- | --- |
| O=C(COc1ccccc1-c1ccccc1)N/N=C/c1ccc2ccccc2c1 | 2.41 µM (active) |

Target: FAD-linked sulfhydryl oxidase ALR (Homo sapiens, UniProt P55789)
Sequence (P55789 whole entry): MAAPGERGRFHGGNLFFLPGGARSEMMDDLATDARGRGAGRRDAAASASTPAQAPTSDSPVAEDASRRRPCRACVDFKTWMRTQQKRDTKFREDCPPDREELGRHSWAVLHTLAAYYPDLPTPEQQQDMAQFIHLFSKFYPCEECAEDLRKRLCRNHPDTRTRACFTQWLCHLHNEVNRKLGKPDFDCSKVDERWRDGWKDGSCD
Assay: ALR-catalysed DTT oxidation blockers – biochemical, H2O2 detection, luminescence, cherry-pick, dose response (AID 493248)
Conditions: not given

| Structure (SMILES) | AC50 |
| --- | --- |
| O=C(c1cccc(F)c1)N1CCN=C1SCc1cccnc1 | 0.123 µM (active) |
| CC(=O)Nc1ccc(NC2CCCCC2NS(=O)(=O)c2ccccc2)cc1 (centres undefined) | 0.736 µM (active) |
| O=C(c1ccccc1F)N1CCN=C1SCc1cccnc1 | 0.552 µM (active) |
| Cc1nc2ccccc2c(=O)n1CCc1ccc(O)cc1 | 3.66 µM (active) |
| Cc1ccccc1NCCC(=O)Nc1ccc(Cl)cc1 | 4.88 µM (active) |
| Nc1ccccc1Sc1c[nH]c2ccccc12 | 24.5 µM (active) |
| Cc1cc(C(=O)C(=O)O)c(C)n1-c1ccc(Cl)c(Cl)c1 | 1.39 µM (active) |

Test system: not listed separately
Assay: DRD fibroblast viability loss – cell-based, non-viral oncogenic, luminescence, dose response (AID 1934)
Format: functional
Conditions: Homo sapiens

| Structure (SMILES) | EC50 |
| --- | --- |
| Cc1ccc(C(=O)c2cc([N+](=O)[O-])ccc2N2CC(C)OC(C)C2)cc1 (centres undefined) | 12.5 µM (active) |
| N/C(=C\C(=O)c1cc(Cl)ccc1O)C(Cl)(Cl)Cl | 5.12 µM (active) |
| O=C(COc1ccccc1-c1ccccc1)N/N=C/c1ccc2ccccc2c1 | 0.475 µM (active) |
| COc1ccc(S(=O)(=O)Cc2ccc(C(=O)N3CCN(c4cccc(C)c4C)CC3)o2)cc1 | 20.4 µM (active) |

Test system: BJ
Assay: BJ-TERT-LT-ST fibroblast viability loss – cell-based, RAS-independent, luminescence, dose response (AID 1935);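 note: BJ fibroblasts immortalized with TERT plus LT and ST oncogenes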
Format: functional
Conditions: Homo sapiens

| Structure (SMILES) | EC50 |
| --- | --- |
| Cc1ccc(C(=O)c2cc([N+](=O)[O-])ccc2N2CC(C)OC(C)C2)cc1 (centres undefined) | 16.7 µM (active) |
| N/C(=C\C(=O)c1cc(Cl)ccc1O)C(Cl)(Cl)Cl | 7.09 µM (active) |
| O=C(COc1ccccc1-c1ccccc1)N/N=C/c1ccc2ccccc2c1 | 0.472 µM (active) |
| COc1ccc(S(=O)(=O)Cc2ccc(C(=O)N3CCN(c4cccc(C)c4C)CC3)o2)cc1 | > 75 µM (inconclusive) |

Test system: not listed separately
Assay: Luminescence Cell-Based Dose Response HTS to Identify Activators of Luciferase Translation or Activity in H4 […] Cells. [Related pubchem assays: 1829 (Project Summary), 1814 (Primary HTS)]
Format: functional
Conditions: not given

| Structure (SMILES) | EC50 |
| --- | --- |
| O=C(NCc1csc(-c2ccccc2)n1)c1cc(F)cc2c1OCOC2 | 13.1 µM (active) |
| Cc1ccc(NCC(=O)N=Nc2c(O)[nH]c3ccc([N+](=O)[O-])cc23)cc1 | 0.255 µM (active) |
| Cc1sc2c(c1C)CN(CCN1CCOCC1)CN2C(=O)c1ccccc1 | 13.7 µM (active) |
| CCOC(=O)C1(Cc2cccc(OC)c2)CCCN(C(=O)CCc2cccnc2)C1 (centres undefined) | 12.6 µM (active) |
| Cc1cccc(C(=O)NNC(=O)c2ccc(Cl)cc2)c1O | 7.11 µM (active) |
| O=C(CC1Sc2ccccc2NC1=O)c1ccc(Br)cc1 (centres undefined) | 7.15 µM (active) |
| Cc1cc(NC(=O)c2cccc(Br)c2)[nH]n1 | 54.5 µM (active) |
| C/C(=N\OC(=O)NC1CCCCC1)c1sc(-c2ccccc2)nc1C | 0.673 µM (active) |
| CC1Oc2ccccc2C=C1/C=C1/SC(N2CCOCC2)=NC1=O (centres undefined) | 37.3 µM (active) |
| c1ccc(CCc2nc(-c3ccccc3)no2)cc1 | 51.8 µM (active) |
| Cc1ccc2c(c1)C(N1CCCC1=O)CC(c1ccco1)N2 (centres undefined) | 16.1 µM (active) |
